{
  "source": "patent US8889745B2",
  "about": "(Nanunanu Ltd., priority 2006, dated 2014)",
  "origin": "cited, not measured here",
  "data": [
    {"compound": "C[C@@H]1C[C@H]2[C@@H]3CCC4=CC(=O)C=C[C@]4(C)[C@@]3(F)[C@@H](O)C[C@]2(C)[C@@]1(O)C(=O)CO", "note": "[dexamethasone]", "values": [
      {"measurement": "aqueous solubility", "result": 88, "unit": "µg/mL"}
    ]}
  ]
}
